Source: publication PMC6426897, “Inhibition of NLRP3 inflammasome activation by cell-permeable stapled peptides” (Scientific Reports, 2019)
Where a SMILES comes first, the peptide text is derived from it. Bridges are numbered along the chain shown (N, C = ends). [ ]: non-standard residue; d: D form. R8 = C=CCCCCCC[C@@](C)(N)C(=O)O; S5 = C=CCCC[C@](C)(N)C(=O)O

Experiments:
THP-1 cells = assay: Internalization of FAM-labeled peptides by flow cytometry; type: in vitro ADME, human; details: THP-1, 37 °C, 4, 8 and 24 hours; FACS; three independent experiments
Method: As NLRP3 and ASC are cytosolic proteins, we examined whether the designed peptides could be taken up by monocytic cells to exert their biological effects. To assess peptide internalization, ms_NLRP3^PYD, ms_ASC^PYD #5 and #6 peptides were labeled with the FAM fluorophore at the N-terminus. Internalization of the FAM-labeled peptides was measured as the mean fluorescence intensity (MFI) by fluorescence-assisted cell sorting (FACS). THP-1 cells were incubated with FAM-labeled ms_NLRP3^PYD (12.5, 25 and 50 μM), ms_ASC^PYD #5 and #6 peptides (50 and 100 μM) for 4, 8 and 24 hours. The internalization of the three FAM-labelled peptides was concentration dependent (Fig. 7A,B). […] We also examined the internalization of FAM-labeled peptides in THP-1 cells by confocal microscopy. THP-1 cells were incubated with FAM-ms_NLRP3^PYD (100 μM), FAM-ms_ASC^PYD #5 or FAM-ms_ASC^PYD #6 (100 μM) for 4, 8 and 18 hours. FAM-labeled peptides localized primarily in the cytosol, but not in the nucleus, of THP-1 cells (Fig. 7C).
THP-1 cells (0.5 × 10^6) were incubated with FAM-NLRP3^PYD (12.5-25-50 μM), FAM-ASC^PYD #5 or FAM-ASC^PYD #6 (50-100 μM) peptides in a 6 well-plate. After 4, 8 and 24 h incubation, THP-1 cells were washed twice with PBS and harvested. The analysis was performed on a BD FACSCANTO II (BD Biosciences), and the data were analyzed using FlowJo (Treestar).

NLRP3 inflammasome [1] = assay: IL-1β release from THP-1 cells stimulated with LPS and nigericin (ELISA); type: cell-based, human; details: THP-1, LPS 0.1 μg/ml 4 h, nigericin 10 μM 1 h, Fig. 8A
Method: We next examined whether the ASC peptides could inhibit IL-1β production, which is regulated by the inflammasome. We used THP-1 human monocytic cells to study inflammasome activation as they express high levels of NLRP3, ASC, and pro-casp-1. THP-1 cells were incubated with ms_ASC^PYD #1–6 or ms_NLRP3^PYD peptides at increasing concentrations for 4 hours and were then stimulated with LPS for 4 hours, followed by the NLRP3 activator nigericin for 1 hour. IL-1β levels were measured in the culture supernatant. […] The ms_ASC^PYD peptides reduced IL-1β production from THP-1 cells in response to LPS/nigericin stimulation to variable degrees (Fig. 6A). […] We decided to continue investigating in detail the inhibitory effects of ms_ASC^PYD #5 and #6 peptides, as their estimated binding energies matched well with the experimental data of suppression of ASC-dependent IL-1 release in a dose-dependent manner. Since ms_ASCPYD #6 is the shorter version of ms_ASCPYD #5, this selection also enabled us to verify the effect of varying peptide lengths.
(§1) Human monocytic THP-1 cells (1 × 10^7 cells) were plated in a 10-cm tissue culture dish and treated with PMA (200 nM) overnight to differentiate monocytic cells into macrophages. Cells were then washed and allowed to rest in fresh media for another day. For stimulation, differentiated THP-1 cells were trypsinized and seeded in 96-well plates (2 × 10^6/well). Peripheral blood mononuclear cells were isolated by Ficoll-Hypaque density gradient centrifugation from buffy coats obtained from anonymous donors provided by the National University Hospital Blood Bank, Singapore. Isolation of monocytes was performed using negative selection with the Monocyte Isolation Kit II (Miltenyi Biotech), following the manufacturer’s instructions. Monocytes were plated in tissue culture non-treated 96-well plates (2.5 × 10^5/well) in 250 µl RPMI 1640-Glutamax media supplemented with 3% human AB serum (Gemini Bio Products).
THP-1 cells and monocytes were incubated with NLRP3^PYD (12.5–25–50 μM), ASC^PYD #5 (12.5-25-50-100 μM) or ASC^PYD #6 (12.5-25-50-100 μM) for the indicated durations. Cells were then washed once with PBS and primed with E. coli LPS (0.1 μg/ml, Invivogen) for 4 h followed by stimulation with nigericin (10 μM) for an additional 1 h or ATP ([…]) for an additional 30 min. The cell culture supernatants were then collected and centrifuged at 500 × g to remove cells and cellular debris.
(§2) IL-1β levels were measured using antibodies from eBioscience (cat. #14-7018-81 and #13-7016-85), following the manufacturer’s instructions. IL-18 levels were measured using antibodies from MBL (D044-3 and D045-6) following the manufacturer’s instructions. The absorbance was measured at 450 nm with the reference wavelength at 570 nm, using an M200 Infinite plate reader (Tecan).

NLRP3 inflammasome [2] = assay: IL-18 secretion from LPS-primed primary human monocytes upon ATP stimulation (ELISA); type: cell-based; details: human blood monocytes, LPS 0.1 μg/ml 4 h, ATP 30 min; 25, 50 and 100 μM; Fig. 8B
Method: as §1, with “Products). […]” for “Products).”
as §2

NLRP3 inflammasome [3] = assay: IL-1β secretion from LPS-primed primary human monocytes upon ATP stimulation (ELISA); type: cell-based; details: human blood monocytes, LPS 0.1 μg/ml 4 h, ATP 30 min; 25, 50 and 100 μM; Fig. 8B
Method: as §1, with “Products). […]” for “Products).”
as §2

NLRP3 inflammasome [4] = assay: IL-18 release from THP-1 cells stimulated with LPS and nigericin (ELISA); type: cell-based, human; details: THP-1, LPS/nigericin; 12.5, 25, 50 and 100 μM; Fig. 8A
Method: as §1, with “Products). […]” for “Products).”
as §2

Row | Compound | Fluorescent signal (MFI) of internalized peptide over time (THP-1 cells) | Inhibition of IL-1β production (NLRP3 inflammasome [1]; 50 μM peptide) | Inhibition of IL-1β production (NLRP3 inflammasome [1]; 100 μM peptide) | IL-18 secretion (in words) (NLRP3 inflammasome [2]) | IL-1β secretion (in words) (NLRP3 inflammasome [3]) | IL-18 production (in words) (NLRP3 inflammasome [4])
1 | CC[C@H](C)[C@@H]1NC(=O)[C@H](CCCCN)NC(=O)[C@H](C)NC(=O)[C@H](CC(C)C)NC(=O)[C@H](CCCCN)NC(=O)[C@](C)(NC(=O)[C@H](C)NC(=O)[C@H](CCCNC(=N)N)NC(=O)[C@H](C)NC(=O)[C@@H](NC(C)=O)[C@@H](C)O)CCCCCCC=CCCC[C@@](C)(C(=O)N[C@@H](CCC(=O)O)C(=O)N[C@@H](CO)C(=O)N[C@H](C(N)=O)C(C)C)NC(=O)[C@H](CCCCN)NC1=O [ms_ASC^PYD #5] (Ac-TARA[R8]KLAKIK[S5]ESV-NH2; staple 5-12) | the fluorescent intensity subsequently decreased over-time | > 60% | > 90% | effectively inhibited | effectively inhibited | decreased IL-18 production by LPS/nigericin-stimulated THP-1 cells in a dose-dependent manner
2 | CC[C@H](C)[C@@H]1NC(=O)[C@H](CCCCN)NC(=O)[C@H](C)NC(=O)[C@H](CCCCN)NC(=O)[C@H](CCCCN)NC(=O)[C@](C)(NC(=O)[C@H](C)NC(=O)[C@H](CCCNC(=N)N)NC(C)=O)CCCCCCC=CCCC[C@@](C)(C(=O)N[C@@H](CCC(=O)O)C(=O)N[C@@H](CO)C(=O)N[C@H](C(N)=O)C(C)C)NC(=O)[C@H](CCCCN)NC1=O [ms_ASC^PYD #6] (Ac-RA[R8]KKAKIK[S5]ESV-NH2; staple 3-10) | – | > 60% | > 90% | effectively inhibited | effectively inhibited | decreased IL-18 production by LPS/nigericin-stimulated THP-1 cells in a dose-dependent manner
